Data reported in PubChem BioAssay AID651852 (Vanderbilt Specialized Chemistry Center, 2012).
The source made the active and inactive calls. The rule behind the calls is not given here.

molecular target: Metabotropic glutamate receptor 5 (Rattus norvegicus) (UniProt P31424); experiment: PubChem AID 651852; details: HEK293 rat mGluR5 membranes, radioligand competition binding
Sequence (P31424 whole entry, looked up): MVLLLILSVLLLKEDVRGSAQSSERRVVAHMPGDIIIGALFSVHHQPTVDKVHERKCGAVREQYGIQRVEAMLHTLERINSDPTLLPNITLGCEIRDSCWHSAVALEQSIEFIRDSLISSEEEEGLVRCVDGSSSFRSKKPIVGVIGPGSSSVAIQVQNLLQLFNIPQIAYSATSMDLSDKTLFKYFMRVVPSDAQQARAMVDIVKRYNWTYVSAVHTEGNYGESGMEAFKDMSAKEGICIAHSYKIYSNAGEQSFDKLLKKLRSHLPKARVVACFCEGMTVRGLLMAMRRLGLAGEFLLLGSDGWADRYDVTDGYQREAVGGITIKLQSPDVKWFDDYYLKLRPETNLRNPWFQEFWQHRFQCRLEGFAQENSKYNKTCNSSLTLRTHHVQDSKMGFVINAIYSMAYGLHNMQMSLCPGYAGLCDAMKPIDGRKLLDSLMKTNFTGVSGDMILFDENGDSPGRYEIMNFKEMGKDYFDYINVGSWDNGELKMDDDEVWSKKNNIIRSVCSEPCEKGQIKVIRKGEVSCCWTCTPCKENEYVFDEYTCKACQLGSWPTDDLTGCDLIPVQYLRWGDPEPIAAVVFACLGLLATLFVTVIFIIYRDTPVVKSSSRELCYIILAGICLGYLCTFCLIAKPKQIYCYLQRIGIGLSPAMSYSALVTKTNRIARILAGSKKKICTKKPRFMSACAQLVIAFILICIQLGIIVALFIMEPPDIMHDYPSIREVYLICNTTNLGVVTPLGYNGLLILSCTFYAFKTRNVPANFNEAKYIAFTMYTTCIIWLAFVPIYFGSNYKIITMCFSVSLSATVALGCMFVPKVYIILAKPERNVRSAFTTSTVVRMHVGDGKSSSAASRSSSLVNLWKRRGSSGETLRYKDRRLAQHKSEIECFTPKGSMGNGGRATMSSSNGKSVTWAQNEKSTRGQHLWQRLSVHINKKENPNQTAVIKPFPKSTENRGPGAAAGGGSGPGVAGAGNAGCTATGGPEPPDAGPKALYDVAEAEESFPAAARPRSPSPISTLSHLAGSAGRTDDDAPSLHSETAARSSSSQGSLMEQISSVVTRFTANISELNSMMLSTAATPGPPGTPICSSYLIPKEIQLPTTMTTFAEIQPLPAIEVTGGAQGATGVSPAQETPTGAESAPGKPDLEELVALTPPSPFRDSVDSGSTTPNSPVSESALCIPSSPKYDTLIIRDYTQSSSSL

IC50, inactive:
O=S(=O)(c1ccc(C#Cc2cccc(F)c2)cc1)N1CCOCC1 > 30 µM, CS(=O)(=O)N(CC(=O)NCC1CC1)c1cc(C(F)(F)F)ccc1Cl > 30 µM, O=S(=O)(c1ccc(F)cc1)N1CCCC(c2nc(-c3ccc(F)cc3)no2)C1 (stereo not drawn) > 30 µM
